Assay results reported in paper PMC10752957, “GABAA receptors as plausible molecular targets and mediators for taurine and homotaurine actions” (Frontiers in Pharmacology, 2023).
Values joined by “and” are separate entries in the source; they are usually repeats but may differ in a detail not shown here. Equal entries are not always repeated. Where two headings read alike, the source gives them in different places.

Tests used:
[1] = test system: native GABAARs in cerebellar granule cells; test: Whole-cell patch clamp of cerebellar granule cells in mouse brain slices, cumulative concentration-response; assay type: cell-based; conditions: for Concentration at which currents reach saturation / Threshold concentration for eliciting currents: cumulative application; for Hill slope of the concentration-response curve: normalized concentration-response curves; for Hill slope of the concentration-response curve / Maximal current response (Imax ± SEM) / EC50: n = 7; for Maximal current response (Imax ± SEM): 1 mM HT, 3 mM taurine, 3 mM GABA; for EC50: read-out: EC50 for evoking GABAAR-mediated current, CGCs held at −70 mV, 10 μM DNQX, 0.3 μM TTX, room temperature, mean ± SEM
[2] = target: mouse brain native GABAARs; test: 5 nM [3H]muscimol displacement from mouse brain (sans cerebellum) membranes; assay type: binding; conditions: n = 9; for IC50: 5 nM [3H]muscimol, mean ± SEM, read-out: IC50 for displacing [3H]muscimol binding
Description: Adult mouse brain (sans cerebellum) membrane pellets were prepared essentially as described by [Uusi-Oukari et al. (2014)], suspended in 50 mM Tris-HCl, pH 7.4 (assay buffer) and frozen at −80°C. For binding experiments, the suspension was thawed and washed by centrifugation/resuspension in assay buffer. 5 nM [^3H]muscimol binding was measured in assay buffer at room temperature (RT, ∼22°C) in a total volume of 300 µL. […] After 20 min incubation at room temperature the membranes were collected with a Brandel Cell Harvester (Model M-24, Gaithersburg, MD, United States) onto Whatman GF/B filters (Whatman International Ltd., Maidstone, United Kingdom). The samples were rinsed twice with 4–5 mL of ice-cold assay buffer. Filtration and rinsing steps took a total time of ∼15 s. Air-dried filters were immersed in 3 mL of Optiphase HiSafe 3 scintillation fluid (Wallac, Turku, Finland) and radioactivity determined in a Hidex 600 SL liquid scintillation counter (Hidex, Turku, Finland). [^3H]Muscimol displacement and electrophysiology data were analyzed with GraphPad Prism 7 software (GraphPad, San Diego, CA, United States). Data are presented as mean ± standard error of mean (SEM). Statistical data analysis was performed with a Student’s t-test (two-tailed distribution, unequal variance) in Microsoft Excel.

GABAAR = test system: GABAAR; design: method as in Allan and Harris, 1986; conditions: ref Allan and Harris, 1986; cited from earlier work
ρ1-GABAARs = test system: ρ1-GABAARs; design: method as in Ochoa-de la Paz et al., 2018; conditions: expressed in oocytes, ref Ochoa-de la Paz et al., 2018, cited from earlier work
[3] = design: method as in Hey et al., 2018; conditions: ref Hey et al., 2018; cited from earlier work
primary cultured neurons = test system: primary cultured neurons; design: method as in Gervais et al., 2007; conditions: 100 μM HT; ref Gervais et al., 2007; cited from earlier work
rat = test system: rat; design: method as in Olive et al., 2002; conditions: fold lower doses than acetyl-HT, rat models; ref Olive et al., 2002; cited from earlier work
rat brain GABAARs = test system: rat brain GABAARs; design: method as in Bureau and Olsen, 1991; conditions: ref Bureau and Olsen, 1991, read-out: Average IC50 for displacing [3H]muscimol; cited from earlier work
[4] = test system: GABAARs in thalamocortical relay neurons; design: method as in Jia et al., 2008; conditions: ref Jia et al., 2008; cited from earlier work
[5] = test system: strychnine-sensitive glycine receptors; design: method as in Jia et al., 2008; conditions: ref Jia et al., 2008; cited from earlier work
mice = test system: mice; design: method as in Singh et al., 2023; conditions: taurine 1 g/kg per day, ref Singh et al., 2023; cited from earlier work
[6] = test system: chick embryonic neuronal cultures; design: method as in Louzada et al., 2004; conditions: 1 mM taurine; ref Louzada et al., 2004; cited from earlier work

SMILES	Concentration at which currents reach saturation [1]	Threshold concentration for eliciting currents [1]	Hill slope of the concentration-response curve [1]	Maximal current response (Imax ± SEM) [1] [pA]	EC50 [1]	IC50 ([2]; room temperature)	Hill slope of the [3H]muscimol displacement curve [2]	further results
NCCCC(=O)O [GABA]	~1 mM	300 nM	0.92 ± 0.13					
COc1ccc(-c2ccc(=N)n(CCCC(=O)O)n2)cc1 [Gabazine]								Block of currents evoked by 1 mM HT, 3 mM taurine and 3 mM GABA ([1]; applied together with saturating agonist): completely blocks
NCCCS(=O)(=O)O [HT, Homotaurine]	around 10 µM	~100 nM	0.79 ± 0.05	−75 ± 7	0.4 µM and 0.425 µM and ~0.4 µM	0.16 µM and 0.158 µM and ~0.2 µM	−0.79 ± 0.04	Potency relative to GABA ([1]; times more potent than GABA): about 10 times; Sensitivity of native CGC GABAARs relative to recombinant ρ1-GABAARs ([1]; times more sensitive to HT): about 1000 times; IC50 [2]: 0.158 ± 0.01 µM; IC50 ([2]; room temperature, listed as Homotaurine): 0.158 ± 0.01 µM; Concentration that stimulates GABAAR-mediated chloride flux (GABAAR): ≥ 100 µM; Type of agonism on recombinant ρ1-GABAARs (ρ1-GABAARs): partial agonist; EC50 (ρ1-GABAARs; read-out: EC50 on recombinant ρ1-GABAARs): ~300 µM; Estimated average total brain 14C-HT [3]: 0.55 µM; Effect on neuronal death induced by 5 μM Aβ42 (primary cultured neurons): inhibited; Dose that reduces alcohol intake, relative to acetyl-HT (rat): ~10 fold
NCCS(=O)(=O)O [taurine, Taurine]	around 3 mM	around 10 μM	0.87 ± 0.06	−67 ± 7	116 µM	125 µM	−0.86 ± 0.04	IC50 (rat brain GABAARs): ~50 µM; Concentration that activates GABAARs [4]: ≥ 10 µM; Concentration that also activates strychnine-sensitive glycine receptors [5]: > 100 µM; Increase in life span (mice): 10%; Effect on neurotoxicity of 44 μM Aβ42 and glutamate receptor agonists [6]: prevented
